Laboratory results reported in ChEMBL document CHEMBL4330132, “5-Keto-3-cyano-2,4-diaminothiophenes as selective maternal embryonic leucine zipper kinase inhibitors” (Bioorg Med Chem Lett, 2019).

How the values were obtained:
[1] = molecular target: Serine/threonine-protein kinase TAO3 (Homo sapiens) (UniProt Q9H2K8); test: Binding affinity to wild-type human partial length TAOK3 (M1 to T316 residues) expressed in mammalian expression system assessed as residual binding level at 1 uM by Kinomescan method relative to control
[2] = molecular target: Casein kinase I isoform epsilon (Homo sapiens) (UniProt P49674); test: Binding affinity to wild-type human full length CSNK1E (M1 to K416 residues) expressed in bacterial expression system assessed as residual binding level at 1 uM by Kinomescan method relative to control
[3] = molecular target: Serine/threonine-protein kinase SIK3 (Homo sapiens) (UniProt Q9Y2K2); test: Binding affinity to wild-type human partial length QSK (A90 to L395 residues) expressed in mammalian expression system assessed as residual binding level at 1 uM by Kinomescan method relative to control
[4] = molecular target: Serine/threonine-protein kinase BRSK2 (Homo sapiens) (UniProt Q8IWQ3); test: Binding affinity to wild-type human full length BRSK2 (M1 to L674 residues) expressed in bacterial expression system assessed as residual binding level at 1 uM by Kinomescan method relative to control
[5] = molecular target: Mitogen-activated protein kinase 8 (Homo sapiens) (UniProt P45983); test: Binding affinity to wild-type human full length JNK1 (M1 to Q384 residues) expressed in mammalian expression system assessed as residual binding level at 1 uM by Kinomescan method relative to control
[6] = molecular target: Interferon-induced, double-stranded RNA-activated protein kinase (Homo sapiens) (UniProt P19525); test: Binding affinity to wild-type human partial length PRKR (F247 to C551 residues) expressed in bacterial expression system assessed as residual binding level at 1 uM by Kinomescan method relative to control
Sequence of Interferon-induced, double-stranded RNA-activated protein kinase (Homo sapiens) (P19525 whole entry, the tested form may be a part): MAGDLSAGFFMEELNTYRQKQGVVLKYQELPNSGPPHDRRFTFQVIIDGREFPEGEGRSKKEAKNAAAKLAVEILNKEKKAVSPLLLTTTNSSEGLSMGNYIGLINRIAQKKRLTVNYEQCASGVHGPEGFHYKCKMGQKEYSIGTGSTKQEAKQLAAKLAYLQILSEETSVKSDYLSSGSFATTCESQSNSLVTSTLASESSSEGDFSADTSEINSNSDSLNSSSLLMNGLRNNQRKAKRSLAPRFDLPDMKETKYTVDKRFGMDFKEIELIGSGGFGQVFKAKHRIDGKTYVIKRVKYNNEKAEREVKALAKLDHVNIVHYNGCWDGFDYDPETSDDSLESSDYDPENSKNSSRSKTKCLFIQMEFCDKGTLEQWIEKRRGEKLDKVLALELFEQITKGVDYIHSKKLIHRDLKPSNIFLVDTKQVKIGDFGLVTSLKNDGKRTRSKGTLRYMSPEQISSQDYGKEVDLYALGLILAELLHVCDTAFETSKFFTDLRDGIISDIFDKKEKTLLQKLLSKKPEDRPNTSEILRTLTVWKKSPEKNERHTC

[7] = molecular target: Serine/threonine-protein kinase PknB (Mycobacterium tuberculosis) (UniProt P9WI81); test: Binding affinity to wild-type Mycobacterium tuberculosis H37Rv partial length PKNB (M1 to G279 residues) expressed in mammalian expression system assessed as residual binding level at 1 uM by Kinomescan method relative to control
[8] = molecular target: Casein kinase I isoform delta (Homo sapiens) (UniProt P48730); test: Binding affinity to wild-type human full length CSNK1D (M1 to K409 residues) expressed in bacterial expression system assessed as residual binding level at 1 uM by Kinomescan method relative to control
[9] = molecular target: Homeodomain-interacting protein kinase 1 (Homo sapiens) (UniProt Q86Z02); test: Binding affinity to wild-type human partial length HIPK1 (M146 to I555 residues) expressed in mammalian expression system assessed as residual binding level at 1 uM by Kinomescan method relative to control
[10] = molecular target: Inhibitor of nuclear factor kappa-B kinase subunit epsilon (Homo sapiens) (UniProt Q14164); test: Binding affinity to wild-type human full length IKK-epsilon (M1 to V716 residues) expressed in mammalian expression system assessed as residual binding level at 1 uM by Kinomescan method relative to control
[11] = molecular target: Rho-associated protein kinase 1 (Homo sapiens) (UniProt Q13464); test: Binding affinity to wild-type human partial length ROCK1 (M1 to R415 residues) expressed in mammalian expression system assessed as residual binding level at 1 uM by Kinomescan method relative to control
[12] = molecular target: SRSF protein kinase 2 (Homo sapiens) (UniProt P78362); test: Binding affinity to wild-type human full length SRPK2 (M1 to S686 residues) expressed in bacterial expression system assessed as residual binding level at 1 uM by Kinomescan method relative to control
[13] = molecular target: Serine/threonine-protein kinase 32C (Homo sapiens) (UniProt Q86UX6); test: Binding affinity to wild-type human partial length YANK3 (M68 to G486 residues) expressed in bacterial expression system assessed as residual binding level at 1 uM by Kinomescan method relative to control
Sequence of Serine/threonine-protein kinase 32C (Homo sapiens) (Q86UX6 whole entry, the tested form may be a part): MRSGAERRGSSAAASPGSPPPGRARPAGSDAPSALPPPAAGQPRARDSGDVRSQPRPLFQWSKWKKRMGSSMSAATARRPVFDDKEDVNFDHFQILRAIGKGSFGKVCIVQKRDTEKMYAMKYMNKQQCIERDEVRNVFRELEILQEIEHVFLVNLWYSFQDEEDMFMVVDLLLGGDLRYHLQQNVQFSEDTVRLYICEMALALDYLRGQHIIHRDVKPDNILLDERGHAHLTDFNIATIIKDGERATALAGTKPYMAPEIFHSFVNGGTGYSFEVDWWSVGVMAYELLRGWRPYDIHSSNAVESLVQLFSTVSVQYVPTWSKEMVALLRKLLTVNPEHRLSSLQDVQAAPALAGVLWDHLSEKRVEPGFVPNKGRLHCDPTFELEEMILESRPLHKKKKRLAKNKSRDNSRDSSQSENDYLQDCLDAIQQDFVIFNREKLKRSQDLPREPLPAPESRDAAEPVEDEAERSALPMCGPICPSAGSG

[14] = molecular target: High affinity nerve growth factor receptor (Homo sapiens) (UniProt P04629); test: Binding affinity to wild-type human partial length TRKA (G475 to G790 residues) expressed in mammalian expression system assessed as residual binding level at 1 uM by Kinomescan method relative to control
[15] = molecular target: Insulin receptor-related protein (Homo sapiens) (UniProt P14616); test: Binding affinity to wild-type human partial length INSRR (R950 to E1278 residues) expressed in bacterial expression system assessed as residual binding level at 1 uM by Kinomescan method relative to control
Sequence of Insulin receptor-related protein (Homo sapiens) (P14616 27-742 limits assumed): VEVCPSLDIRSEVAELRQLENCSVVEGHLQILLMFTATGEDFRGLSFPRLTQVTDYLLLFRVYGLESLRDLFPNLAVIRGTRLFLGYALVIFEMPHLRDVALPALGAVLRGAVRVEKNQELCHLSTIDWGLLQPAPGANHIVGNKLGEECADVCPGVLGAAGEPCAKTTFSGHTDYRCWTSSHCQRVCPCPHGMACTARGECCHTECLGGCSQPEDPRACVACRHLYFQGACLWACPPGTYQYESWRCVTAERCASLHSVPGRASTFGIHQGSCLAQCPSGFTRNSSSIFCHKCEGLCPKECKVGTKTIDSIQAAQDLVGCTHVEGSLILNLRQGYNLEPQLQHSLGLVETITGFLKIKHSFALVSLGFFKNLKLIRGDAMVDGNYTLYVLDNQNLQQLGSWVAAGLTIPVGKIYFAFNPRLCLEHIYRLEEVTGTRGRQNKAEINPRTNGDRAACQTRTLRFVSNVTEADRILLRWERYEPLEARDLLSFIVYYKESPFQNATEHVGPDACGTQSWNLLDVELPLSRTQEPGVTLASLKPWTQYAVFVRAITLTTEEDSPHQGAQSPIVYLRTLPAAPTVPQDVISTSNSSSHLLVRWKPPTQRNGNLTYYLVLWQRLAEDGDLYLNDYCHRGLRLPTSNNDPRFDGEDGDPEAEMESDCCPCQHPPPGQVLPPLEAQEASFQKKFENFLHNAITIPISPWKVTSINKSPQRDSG
Sequence of Insulin receptor-related protein (Homo sapiens) (P14616 747-1297 limits assumed): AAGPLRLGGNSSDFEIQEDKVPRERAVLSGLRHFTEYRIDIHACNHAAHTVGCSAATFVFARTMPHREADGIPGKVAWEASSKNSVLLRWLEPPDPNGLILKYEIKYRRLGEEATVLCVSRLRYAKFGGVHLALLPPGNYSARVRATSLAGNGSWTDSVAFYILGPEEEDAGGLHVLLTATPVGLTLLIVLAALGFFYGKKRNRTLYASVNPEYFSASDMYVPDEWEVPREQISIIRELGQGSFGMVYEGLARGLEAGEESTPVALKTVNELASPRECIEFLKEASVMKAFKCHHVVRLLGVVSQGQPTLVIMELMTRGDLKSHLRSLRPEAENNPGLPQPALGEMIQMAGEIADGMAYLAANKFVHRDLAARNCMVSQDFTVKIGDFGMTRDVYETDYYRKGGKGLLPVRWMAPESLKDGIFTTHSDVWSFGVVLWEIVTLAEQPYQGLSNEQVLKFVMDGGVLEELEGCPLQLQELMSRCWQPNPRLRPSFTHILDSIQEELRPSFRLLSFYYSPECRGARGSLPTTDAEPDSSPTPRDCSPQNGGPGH

[16] = molecular target: Membrane-associated tyrosine- and threonine-specific cdc2-inhibitory kinase (Homo sapiens) (UniProt Q99640); test: Binding affinity to wild-type human partial length PKMYT1 (A88 to G366 residues) expressed in bacterial expression system assessed as residual binding level at 1 uM by Kinomescan method relative to control
Sequence of Membrane-associated tyrosine- and threonine-specific cdc2-inhibitory kinase (Homo sapiens) (Q99640 whole entry, the tested form may be a part): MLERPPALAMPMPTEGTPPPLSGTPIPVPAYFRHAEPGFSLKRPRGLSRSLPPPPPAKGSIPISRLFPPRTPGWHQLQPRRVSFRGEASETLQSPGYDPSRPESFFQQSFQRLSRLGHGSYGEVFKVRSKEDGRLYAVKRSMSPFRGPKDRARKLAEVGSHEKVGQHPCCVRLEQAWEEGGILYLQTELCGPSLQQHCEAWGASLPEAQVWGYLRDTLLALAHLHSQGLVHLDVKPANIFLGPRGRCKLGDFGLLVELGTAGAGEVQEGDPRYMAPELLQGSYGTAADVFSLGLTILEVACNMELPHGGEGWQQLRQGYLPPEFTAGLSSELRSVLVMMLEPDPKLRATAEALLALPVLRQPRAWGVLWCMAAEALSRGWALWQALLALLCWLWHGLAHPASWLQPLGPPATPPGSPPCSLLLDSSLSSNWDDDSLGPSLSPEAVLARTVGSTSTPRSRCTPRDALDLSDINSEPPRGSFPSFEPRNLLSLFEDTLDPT

[17] = molecular target: Serine/threonine-protein kinase TAO2 (Homo sapiens) (UniProt Q9UL54); test: Binding affinity to wild-type human partial length TAOK2 (M1 to A320 residues) expressed in mammalian expression system assessed as residual binding level at 1 uM by Kinomescan method relative to control
[18] = molecular target: Myosin light chain kinase 2, skeletal/cardiac muscle (Homo sapiens) (UniProt Q9H1R3); test: Binding affinity to wild-type human partial length MYLK2 (D258 to K570 residues) expressed in bacterial expression system assessed as residual binding level at 1 uM by Kinomescan method relative to control
[19] = molecular target: Phosphatidylinositol 4,5-bisphosphate 3-kinase catalytic subunit alpha isoform (Homo sapiens) (UniProt P42336); test: Binding affinity to wild-type human partial length PIK3CA (R108 to N1068 residues) expressed in mammalian expression system assessed as residual binding level at 1 uM by Kinomescan method relative to control
Sequence of Phosphatidylinositol 4,5-bisphosphate 3-kinase catalytic subunit alpha isoform (Homo sapiens) (P42336 whole entry, the tested form may be a part, canonical isoform): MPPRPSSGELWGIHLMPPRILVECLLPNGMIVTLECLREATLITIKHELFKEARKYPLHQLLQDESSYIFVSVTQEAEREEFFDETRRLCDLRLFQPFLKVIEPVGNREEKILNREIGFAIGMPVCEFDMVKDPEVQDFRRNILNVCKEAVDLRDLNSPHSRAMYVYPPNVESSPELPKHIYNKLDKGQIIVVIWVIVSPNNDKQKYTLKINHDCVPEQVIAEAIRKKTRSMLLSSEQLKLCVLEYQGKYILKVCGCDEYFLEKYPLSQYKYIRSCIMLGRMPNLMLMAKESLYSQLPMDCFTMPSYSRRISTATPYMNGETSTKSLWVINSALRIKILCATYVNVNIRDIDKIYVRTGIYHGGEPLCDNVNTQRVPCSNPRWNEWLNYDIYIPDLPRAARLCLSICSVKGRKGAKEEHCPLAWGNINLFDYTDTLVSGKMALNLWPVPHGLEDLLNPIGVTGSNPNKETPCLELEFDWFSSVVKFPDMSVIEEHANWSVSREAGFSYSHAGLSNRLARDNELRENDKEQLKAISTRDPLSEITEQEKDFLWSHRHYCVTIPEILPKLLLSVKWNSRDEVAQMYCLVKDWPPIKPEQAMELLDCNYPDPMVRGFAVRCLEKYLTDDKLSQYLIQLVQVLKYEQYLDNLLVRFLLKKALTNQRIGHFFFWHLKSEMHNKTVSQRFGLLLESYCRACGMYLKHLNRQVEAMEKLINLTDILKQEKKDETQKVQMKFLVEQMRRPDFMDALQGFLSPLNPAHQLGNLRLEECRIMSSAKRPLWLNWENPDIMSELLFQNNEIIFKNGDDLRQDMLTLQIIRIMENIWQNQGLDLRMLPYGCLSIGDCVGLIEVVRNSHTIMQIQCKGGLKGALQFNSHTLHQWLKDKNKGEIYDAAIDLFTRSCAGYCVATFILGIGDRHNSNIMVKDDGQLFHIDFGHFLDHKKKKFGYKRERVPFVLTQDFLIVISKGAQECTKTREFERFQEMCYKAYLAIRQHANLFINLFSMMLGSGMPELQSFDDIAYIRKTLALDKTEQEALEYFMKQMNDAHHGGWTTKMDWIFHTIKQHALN

[20] = molecular target: Phosphatidylinositol 4-kinase beta (Homo sapiens) (UniProt Q9UBF8); test: Binding affinity to wild-type human full length PIK4CB (M1 to M828 residues) expressed in mammalian expression system assessed as residual binding level at 1 uM by Kinomescan method relative to control
Sequence of Phosphatidylinositol 4-kinase beta (Homo sapiens) (Q9UBF8 2-816 limits assumed): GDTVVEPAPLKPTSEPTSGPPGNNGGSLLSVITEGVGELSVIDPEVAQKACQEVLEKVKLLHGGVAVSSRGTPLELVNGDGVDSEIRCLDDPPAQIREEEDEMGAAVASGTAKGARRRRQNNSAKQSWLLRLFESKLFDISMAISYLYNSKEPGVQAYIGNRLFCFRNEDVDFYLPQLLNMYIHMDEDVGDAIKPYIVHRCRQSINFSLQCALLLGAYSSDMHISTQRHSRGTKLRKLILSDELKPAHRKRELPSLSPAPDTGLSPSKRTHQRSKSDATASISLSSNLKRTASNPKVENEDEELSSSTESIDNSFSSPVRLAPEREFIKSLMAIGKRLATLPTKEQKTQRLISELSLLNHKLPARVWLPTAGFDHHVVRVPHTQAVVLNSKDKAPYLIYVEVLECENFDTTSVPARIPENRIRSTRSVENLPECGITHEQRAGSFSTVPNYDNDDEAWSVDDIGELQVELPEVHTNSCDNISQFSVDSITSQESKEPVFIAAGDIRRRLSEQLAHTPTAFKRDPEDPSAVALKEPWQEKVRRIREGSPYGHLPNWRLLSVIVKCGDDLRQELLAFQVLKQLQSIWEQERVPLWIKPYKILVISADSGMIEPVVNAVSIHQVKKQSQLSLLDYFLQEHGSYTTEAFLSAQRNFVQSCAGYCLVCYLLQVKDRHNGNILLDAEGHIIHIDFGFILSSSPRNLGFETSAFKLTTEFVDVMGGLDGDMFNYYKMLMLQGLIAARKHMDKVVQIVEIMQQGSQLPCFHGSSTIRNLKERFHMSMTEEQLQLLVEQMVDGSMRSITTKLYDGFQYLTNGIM

[21] = molecular target: Glycogen synthase kinase-3 alpha (Homo sapiens) (UniProt P49840); test: Binding affinity to wild-type human full length GSK3A (M1 to S483 residues) expressed in bacterial expression system assessed as residual binding level at 1 uM by Kinomescan method relative to control
[22] = molecular target: Ephrin type-B receptor 1 (Homo sapiens) (UniProt P54762); test: Binding affinity to wild-type human partial length EPHB1 (P589 to T911 residues) expressed in bacterial expression system assessed as residual binding level at 1 uM by Kinomescan method relative to control
[23] = molecular target: Mitogen-activated protein kinase kinase kinase 7 (Homo sapiens) (UniProt O43318); test: Binding affinity to wild-type human partial length TAK1 (M1 to Q303 residues) expressed in mammalian expression system assessed as residual binding level at 1 uM by Kinomescan method relative to control
[24] = molecular target: cAMP-dependent protein kinase catalytic subunit alpha (Homo sapiens) (UniProt P17612); test: Binding affinity to wild-type human partial length PKAC-alpha (G10 to F351 residues) expressed in bacterial expression system assessed as residual binding level at 1 uM by Kinomescan method relative to control

Structure (SMILES): CC(C)Nc1sc(C(=O)c2ccc(Cl)s2)c(N)c1C#N
- Activity [1]: 100%
- Activity [2]: 61%
- Activity [3]: 100%
- Activity [4]: 58%
- Activity [5]: 100%
- Activity [6]: 68%
- Activity [7]: 95%
- Activity [8]: 59%
- Activity [9]: 100%
- Activity [10]: 100%
- Activity [11]: 100%
- Activity [12]: 93%
- Activity [13]: 82%
- Activity [14]: 92%
- Activity [15]: 76%
- Activity [16]: 78%
- Activity [17]: 100%
- Activity [18]: 81%
- Activity [19]: 100%
- Activity [20]: 100%
- Activity [21]: 100%
- Activity [22]: 96%
- Activity [23]: 100%
- Activity [24]: 85%
